In US8362051B2, “Mold-resistant wallboard” (Rohm and Haas Company, priority 2007, dated 2013):

What was measured:
Format in all cases: cell-based
mold [1] = test: TAPPI T-487 test on surface-treated paper; design: key to TAPPI T-487 rating Week 1 / TAPPI T-487 rating Week 2 / TAPPI T-487 rating Week 3: 100% mold coverage; 1: 90% mold coverage; 2: 80% mold coverage; 3: 70% mold coverage; 4: 60% mold coverage; 50% mold coverage; 6: 40% mold coverage; 7: 30% mold coverage; 8: 20% mold coverage; 9: 10% mold coverage; 10: no mold growth; conditions: surface treatment; for TAPPI T-487 rating Week 1 / TAPPI T-487 rating Week 2 / TAPPI T-487 rating Week 3: average of three sheets
Description: The papers of this example were prepared via surface treatment. The values in Table 3 below represent the average concentration of active biocide in the paper and the average […]-487 test rating based on three paper sheets.

mold [2] = test: ASTM 3273 fungal growth test on paper sheets, biocide added to pulp slurry; design: key to ASTM 3273 rating Week 1: 0: 100% mold coverage; 1: 90%; 2: 80%; 3: 70%; 4: 60%; 5: 50%; 6: 40%; 7: 30%; 8: 20%; 9: 10%; 10: no mold growth coverage; 8: 20% mold coverage; 9: 10% mold coverage; 10: no mold growth; key to ASTM 3273 rating Week 2 / ASTM 3273 rating Week 3 / ASTM 3273 rating Week 4: 100% mold coverage; 1: 90% mold coverage; 2: 80% mold coverage; 3: 70% mold coverage; 4: 60% mold coverage; 50% mold coverage; 6: 40% mold coverage; 7: 30% mold coverage; 8: 20% mold coverage; 9: 10% mold coverage; 10: no mold growth; conditions: average of three sheets
Description: (§1) The biocides can be evaluated in the following examples by adding to a 0.4 wt % pulp slurry in water (100% recycle) typically used for gypsum wallboard facing paper. The slurry is filtered through a screen to drain the water from the stock and the resulting paper mat is blotted, couched, and dried to form a paper sheet with a basis weight of approximately 40 lb/1000 ft2. Three sheets per condition are prepared. High Performance Liquid Chromatography (HPLC) is used to determine the amount of biocide present in each sheet. The paper sheets are evaluated for fungal growth via ASTM 3273, currently the industry standard for mold-resistant wallboard, as well as the standard TAPPI T-487 fungal efficacy test.
(§2) The values in Tables 1 and 2 below represent data from samples made substantially according to the preceding protocol. The average concentration of active biocide in the paper and the average test rating based on three paper sheets are shown. Based on tables 1 and 2, approximately 4-4.5 times more DIMTS active was needed in the paper sheet than OIT before no mold growth was observed throughout the entire testing period.
(§3) For ASTM 3273, a 4-week test, the following rating scale applies: • 0—100% mold coverage • 1—90% mold coverage • 2—80% mold coverage • 3—70% mold coverage • 4—60% mold coverage • 5—50% mold coverage • 6—40% mold coverage • 7—30% mold coverage • 8—20% mold coverage • 9—10% mold coverage • 10—no mold growth For TAPPI T-487, a 3-week test, the following rating scale applies: • 0—no mold growth • 1—25% mold coverage • 2—50% mold coverage • 3—75% mold coverage • 4—100% mold coverage

mold [3] = test: TAPPI T-487 fungal efficacy test on paper sheets, biocide added to pulp slurry; design: key: coverage; 8: 20% mold coverage; 9: 10% mold coverage; 10: no mold growth; conditions: average of three sheets
Description: as §1, §2, §3

CCCCNC(=O)OCC#CI [IPBC, 3-iodo-2-propynyl-butylcarbamate]
TAPPI T-487 rating Week 1 (mold [1]; 70 ppm in paper): 0
TAPPI T-487 rating Week 2 (mold [1]; 70 ppm in paper): 0
TAPPI T-487 rating Week 3 (mold [1]; 70 ppm in paper): 0
TAPPI T-487 rating Week 1 (mold [1]; 688 ppm in paper): 0
TAPPI T-487 rating Week 2 (mold [1]; 688 ppm in paper): 0
TAPPI T-487 rating Week 3 (mold [1]; 688 ppm in paper): 0
TAPPI T-487 rating Week 1 (mold [1]; 6768 ppm in paper): 0
TAPPI T-487 rating Week 2 (mold [1]; 6768 ppm in paper): 0
TAPPI T-487 rating Week 3 (mold [1]; 6768 ppm in paper): 0
effectiveness at controlling mold growth versus comparators (mold [1]; based on Table 3): more effective at controlling mold growth at lower dosages than DIMTS, ZPT, and TBZ

CCCCCCCCn1sccc1=O [OIT, octylisothiazolinone]
ASTM 3273 rating Week 1 (mold [2]; 113 ppm in paper sheet): 10
ASTM 3273 rating Week 2 (mold [2]; 113 ppm in paper sheet): 10
ASTM 3273 rating Week 3 (mold [2]; 113 ppm in paper sheet): 10
ASTM 3273 rating Week 4 (mold [2]; 113 ppm in paper sheet): 10
ASTM 3273 rating Week 1 (mold [2]; 174 ppm in paper sheet): 10
ASTM 3273 rating Week 2 (mold [2]; 174 ppm in paper sheet): 10
ASTM 3273 rating Week 3 (mold [2]; 174 ppm in paper sheet): 10
ASTM 3273 rating Week 4 (mold [2]; 174 ppm in paper sheet): 10
ASTM 3273 rating Week 1 (mold [2]; 283 ppm in paper sheet): 10
ASTM 3273 rating Week 2 (mold [2]; 283 ppm in paper sheet): 10
ASTM 3273 rating Week 3 (mold [2]; 283 ppm in paper sheet): 10
ASTM 3273 rating Week 4 (mold [2]; 283 ppm in paper sheet): 10
TAPPI T-487 rating Week 1 (mold [3]; 181 ppm in paper sheet): 0
TAPPI T-487 rating Week 2 (mold [3]; 181 ppm in paper sheet): 0
TAPPI T-487 rating Week 3 (mold [3]; 181 ppm in paper sheet): 0
TAPPI T-487 rating Week 1 (mold [3]; 309 ppm in paper sheet): 0
TAPPI T-487 rating Week 2 (mold [3]; 309 ppm in paper sheet): 0
TAPPI T-487 rating Week 3 (mold [3]; 309 ppm in paper sheet): 0
TAPPI T-487 rating Week 1 (mold [3]; 492 ppm in paper sheet): 0
TAPPI T-487 rating Week 2 (mold [3]; 492 ppm in paper sheet): 0
TAPPI T-487 rating Week 3 (mold [3]; 492 ppm in paper sheet): 0

c1ccc2[nH]c(-c3cscn3)nc2c1 [TBZ, Thiabendazole]
TAPPI T-487 rating Week 1 (mold [1]; 31 ppm in paper): 4 (100% mold coverage)
TAPPI T-487 rating Week 2 (mold [1]; 31 ppm in paper): 4 (100% mold coverage)
TAPPI T-487 rating Week 3 (mold [1]; 31 ppm in paper): 4 (100% mold coverage)
TAPPI T-487 rating Week 1 (mold [1]; 229 ppm in paper): 2 (50% mold coverage)
TAPPI T-487 rating Week 2 (mold [1]; 229 ppm in paper): 4 (100% mold coverage)
TAPPI T-487 rating Week 3 (mold [1]; 229 ppm in paper): 4 (100% mold coverage)
TAPPI T-487 rating Week 1 (mold [1]; 4107 ppm in paper): 0
TAPPI T-487 rating Week 2 (mold [1]; 4107 ppm in paper): 0
TAPPI T-487 rating Week 3 (mold [1]; 4107 ppm in paper): 0

zinc pyrithione [ZPT]
TAPPI T-487 rating Week 1 (mold [1]; 60 ppm in paper): 4 (100% mold coverage)
TAPPI T-487 rating Week 2 (mold [1]; 60 ppm in paper): 4 (100% mold coverage)
TAPPI T-487 rating Week 3 (mold [1]; 60 ppm in paper): 4 (100% mold coverage)
TAPPI T-487 rating Week 1 (mold [1]; 486 ppm in paper): 1 (25% mold coverage)
TAPPI T-487 rating Week 2 (mold [1]; 486 ppm in paper): 4 (100% mold coverage)
TAPPI T-487 rating Week 3 (mold [1]; 486 ppm in paper): 4 (100% mold coverage)
TAPPI T-487 rating Week 1 (mold [1]; 5408 ppm in paper): 0
TAPPI T-487 rating Week 2 (mold [1]; 5408 ppm in paper): 0
TAPPI T-487 rating Week 3 (mold [1]; 5408 ppm in paper): 0
